Measurements as given in US7102027B2, “Adamantanetricarboxylic acid derivatives” (Daicel Chemical Industries, Ltd., priority 2003, dated 2006).
Where two headings read alike, the source gives them in different places.

Assay: Dissolution of monomer components in mesitylene to prepare a coating liquid
Format: physicochemical
Protocol: In 100 g of mesitylene were dissolved 2.48 g (8 mmol) of trimethyl ester of 1,3,5-adamantanetricarboxylic acid prepared in Example 1 and 6.42 g (12 mmol) of 3,3′-diaminobenzidinetetracyclohexanoimine [N,N′,N″,N′″-tetracyclohexylidene-3,4,3′,4′-biphenyltetramine] prepared in Preparation Example 1 at room temperature in a nitrogen atmosphere, to yield a coating liquid having a monomer concentration of 8.2% by weight. After filtrating through a filter with a pore size of 0.1 μm, the coating liquid was applied to an 8-inch silicon wafer by spin coating. This was heated at 300° C. in a nitrogen atmosphere for 30 minutes and was then heated at 400° C. for further 30 minutes, to form a film. The infrared absorption spectrum of the resulting polymer film was determined. The result is shown in FIG. 1, verifying that the target crosslinked polybenzazole film was formed.
A coating liquid was prepared by the procedure of Example • 7, except using equal amounts of • 1,3,5-adamantanetricarboxylic acid and • 3,3′-diaminobenzidine instead of trimethyl ester of • 1,3,5-adamantanetricarboxylic acid and • N,N′,N″,N′″-tetracyclohexylidene-3,4,3′,4′-biphenyltetramine, respectively. […] The infrared absorption spectrum of the resulting polymer film was determined, verifying that the target crosslinked polybenzazole film was formed.

solubility in the solvent (mesitylene) | SMILES | solubility in the solvent (mesitylene) (procedure of Example 7: 8 mmol acid and 12 mmol amine together in 100 g mesitylene, room temperature, nitrogen atmosphere)
not sufficiently dissolved | O=C(O)C12CC3CC(C(=O)O)(C1)CC(C(=O)O)(C3)C2 [1,3,5-adamantanetricarboxylic acid] | –
– | Nc1ccc(-c2ccc(N)c(N)c2)cc1N [3,3′-diaminobenzidine] | not sufficiently dissolved
